What was measured:
RBL-2H3 cells = test: evaluation of degranulation (β-hexosaminidase release) in sensitized/stimulated RBL-2H3 cells; assay type: cell-based, rat; settings: positive control 20 µM
Method: To evaluate the efficacy of a mixture M according to the invention, the following in vitro study was conducted. The antiallergic activity of the tested sample of mixture M was evaluated by measuring its ability to prevent degranulation processes in a rat leukemia cell line (RBL-2H3), widely used as a model simulating mast cells in immunological and allergological studies.
(§1) The RBL-2H3 cells were first sensitized and then stimulated to induce degranulation.
The test was conducted on RBL-2H3 cells grown in DMEM (Dulbecco's modified Eagle medium) containing 10% fetal bovine serum (FBS) and 1% antibiotics (penicillin and streptomycin) and incubated in standard culture conditions (37°C, 5% CO2). RBL-2H3 cells are widely used in allergy and immunology research, as, like mast cells, they express FCεRI and, following cross-linking between IgE bound to FCεRI and allergens, they undergo degranulation. […]
The medium was then recovered and separated from the cells and incubated with 4-nitrophenyl-N-acetyl-β-D-glucosamide. The reaction was stopped with carbonate buffer and the absorbance was measured by spectrophotometric reading at 405 nm. Degranulation was calculated as the percentage of β-hexosaminidase relative to non-sensitized (NS) cells as follows: Degranulation (%) = (ODX)/(ODNS)⋅100 [formula] […]

TNFα = TNFα dosage by ELISA in supernatant of sensitized/stimulated RBL-2H3 cells; assay type: cell-based, rat; settings: positive control 20 µM
Method: The anti-inflammatory action was instead evaluated, always in the same cell line, by measuring the ability of the sample to inhibit the release of tumor necrosis factor alpha (TNFα).
as §1
The test was conducted on RBL-2H3 cells grown in DMEM (Dulbecco's modified Eagle medium) containing 10% fetal bovine serum (FBS) and 1% antibiotics (penicillin and streptomycin) and incubated in standard culture conditions (37°C, 5% CO2). RBL-2H3 cells are widely used in allergy and immunology research, as, like mast cells, they express FCεRI and, following cross-linking between IgE bound to FCεRI and allergens, they undergo degranulation. In this way, therefore, they simulate the behavior of mast cells and basophils in their response to an immunological stimulus.
The supernatant recovered from the cells was also used for the dosage of TNFα performed by ELISA (Enzyme-Linked Immunosorbent Assay), a very widespread biochemical technique used for the quantification of proteins and peptides. In an ELISA assay, a specific […] for TNFα is immobilized on a solid surface (the bottom of a well) to which the assay medium is added. Detection is done by means of a biotinylated secondary antibody and then reacted with streptavidin-HRP. The colorimetric reaction is proportional to the amount of TNFα present. The results are read by spectrophotometer at 450 nm. The values obtained were then interpolated into a standard curve of TNFα.
The absorbance (optical density, OD) measured at 450 nm is directly proportional to the amount of TNFα produced by the tissues. To calculate the concentrations of TNFα, the OD values obtained were interpolated into a standard curve of TNFα. The percentages were calculated with respect to the non-sensitized and non-stimulated cells (NS). The values are expressed as means ± standard deviation. Statistical processing of the data was performed by Student's t-test. Values of p<0.05 are considered significant. […]

For `C=C1CC[C@H]2C(=C)CC[C@H]3C(=C)C(=O)O[C@@H]3[C@@H]12` [PC, Dehydrocostolactone], the “β-hexosaminidase (% vs NS)” value (RBL-2H3 cells; RBL-2H3, anti-DNP IgE / DNP-HSA) was 244.8%, the “protection (% vs NC)” value (RBL-2H3 cells; reduction in degranulation) was 80.8% and the “TNFα (% vs NS)” value (TNFα) was 183.4%. For the same molecule, the “TNFα” value (TNFα; RBL-2H3 supernatant) was 200.3 pg/mL and the “protezione (% vs NC)” value (TNFα; reduction in TNFα release) was 19.5%.

Reference: patent EP4653007A1, “NOVEL MIXTURE OF ACTIVE INGREDIENTS, COMPOSITIONS CONTAINING THEM, AND THEIR USE AGAINST ALLERGY AND/OR INFLAMMATION” (Global Pharmacies Partner S.R.L. in Forma Abbreviata G.P.P. …, priority 2024, dated 2025)
